Legend:
Pyricularia oryzae = assay type: in vivo; details: foliage spray on rice seedlings (cv. […]), number of lesions six days after the inoculation
Sphaerotheca fuliginea = assay: Controlling effect on Sphaerotheca fuliginea by foliage application (pot experiment); assay type: in vivo; details: foliage spray on cucumber (cv. TSUKUBASHIROIBO) first leaves, infected area after 10 days in greenhouse at 20° C.; for pest or weed control at 500 ppm: Podosphaera fuliginea, in Cucumis sativus, foliar, 240 h, read-out: Controlling effect on Sphaerotheca fuliginea by foliage application at 500 ppm (percent control)
Summary of the method: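 First leaves of cucumber seedlings, 2-3 weeks old, were sprayed with compound (DMF solution diluted in water with spreader). They were inoculated 24 h later with a Sphaerotheca fuliginea conidia spray and kept 10 days at 20° C in a greenhouse. Percent control was calculated from infected leaf area.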

[1] = tested on: Erysiphe graminis f. sp. tritici; assay: Controlling effect on Erysiphe graminis f. sp. tritici by foliage application (pot experiment); assay type: in vivo; details: foliage spray on wheat (cv. NORIN No. 61) seedlings, infected area after 10 days in greenhouse at 20° C.; for pest or weed control at 500 ppm: Blumeria graminis, foliar, 240 h, read-out: Controlling effect on ErYsiphe graminis f. sp. tritici by foliage application at 500 ppm (percent control)
Summary of the method: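 Wheat seedlings (cv. NORIN No. 61, 2-3 weeks old) sprayed with compound in DMF diluted in water with spreader, then inoculated with conidia 24 hours later. Kept in greenhouse at 20 °C for 10 days; percent control calculated from infected leaf area.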

Puccinia coronata = assay: Controlling effect on Puccinia coronata by foliage application (pot experiment); assay type: in vivo; details: foliage spray on oat (cv. PC-38) seedlings, infected area after 1 day moist chamber and 8 days greenhouse at 20° C.
Summary of the method: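 Oat seedlings (cv. PC-38, 2–3 weeks old) were sprayed with compound in DMF diluted with spreader-containing water, then inoculated 24 h later with P. coronata spores diluted in talc. Plants were held 1 day in a moist chamber at 20° C, then 8 days in a greenhouse at 20° C; percent control came from infected leaf area.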

Botrytis cinerea = assay: Controlling effect on Botrytis cinerea by foliage application (pot experiment); assay type: in vivo; details: foliage spray on cucumber (cv. TSUKUBASHIROIBO) first leaves, mycelial disks, lesion diameter after 3 days in moist chamber at 20° C.
Experimental: The following Test Examples illustrate the effects of the fungicide of the present invention. (I. Controlling effects on various plant diseases by foliage application (pot experiment)) A test compound was dissolved in a small amount of N,N-dimethylformamide, and the solution was diluted to a given concentration with distilled water containing a spreader. Thus, a liquid sample to be tested was prepared. The liquid sample was sprayed to test plants, and 24 hours thereafter, pathogens were inoculated by the method described below. […] The seeds of cucumber ([…]) were sown in plastic cups (each 9 cm in diameter), followed by cultivation for 2 to 3 weeks. The test compound in the form of a solution or suspension was sprayed to the surface of their first leaves, and mycelial disks (4 mm φ) of Botrytis cinerea cultured on the potato sucrose agar medium were put on the leaf surfaces to inoculate. the cucumber seedlings with the pathogen. The plants were kept in a moist chamber at 20° C. for 3 days. The diameter of the lesions on the leaves was measured and the percent control was calculated.

[2] = tested on: Pseudoperonospora cubensis; assay: Controlling effect on Pseudoperonospora cubensis by foliage application (pot experiment); assay type: in vivo; details: foliage spray on cucumber (var. TSUKUBASHIROIBO) first leaves, lesion area after 10 days in moist chamber at 20° C.
Summary of the method: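 Cucumber plants grown 2–3 weeks were sprayed on first leaves with compound (DMF solution diluted in water with spreader); 24 h later, Pseudoperonospora cubensis zoosporangia suspension dropped on leaves. Plants held in moist chamber at 20° C for 10 days; lesion area observed and percent control calculated.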

Compound	Controlling effect on PYricularia orYzae by foliage application at 500 ppm (percent control) (Pyricularia oryzae)	pest or weed control at 500 ppm (Sphaerotheca fuliginea)	pest or weed control at 500 ppm [1]	Controllng effect on Puccinia coronata by foliage application at 500 ppm (percent control) (Puccinia coronata)	melting point	Controlling effect on Sphaerotheca fuliginea by foliage application at 500 ppm (percent control) (Sphaerotheca fuliginea)	Controlling effect on Botrytis cinerea by foliage application at 500 ppm (percent control) (Botrytis cinerea)	Controlling effect on ErYsiphe graminis f. sp. tritici by foliage application at 500 ppm (percent control) [1]	Controlling effect on Pseudoperonospora cubensis by foliage application at 500 ppm (percent control) [2]
CON=C(c1ccon1)c1ccccc1COc1cc(C)ccc1C (single isomer, unassigned) [Compound No. 336, 2-(2,5-dimethylphenoxymethyl)phenyl isoxazol-3-yl ketone O-methyloxime]	90 percent control	100%	97%	100 percent control	104 to 108 °C				
CON=C(c1ccccc1COc1ccccc1)n1ccnc1 [Compound No. 1]	90 percent control			97 percent control		100 percent control	100 percent control	90 percent control	
CON=C(c1ccccc1COc1ccccc1Cl)n1ccnc1 [Compound No. 5]	97 percent control			90 percent control		100 percent control	70 percent control	90 percent control	
CON=C(c1ccccc1COc1ccc(Cl)cc1)n1ccnc1 [Compound No. 7]	97 percent control			97 percent control		100 percent control	100 percent control	100 percent control	
CON=C(c1ccccc1COc1ccccc1C)n1ccnc1 [Compound No. 13]	90 percent control			97 percent control		100 percent control	70 percent control	90 percent control	
CON=C(c1ccccc1COc1ccc(C)cc1)n1ccnc1 [Compound No. 15]	90 percent control			100 percent control		100 percent control	100 percent control	97 percent control	
C=CCON=C(c1ccccc1COc1ccccc1)n1ccnc1 [Compound No. 81]	97 percent control			97 percent control			90 percent control	97 percent control	
CON=C(c1cc(C)no1)c1ccccc1COc1ncc(C(F)(F)F)cc1Cl [Compound No. 690, 2-(3-chloro-5-trifluoromethyl-2-pyridyloxymethyl)phenyl 3-methylisoxazol-5-yl ketone O-methyloxime]					77 to 79 °C				
CON=C(c1nnco1)c1ccccc1COc1cc(C)ccc1C [Compound No. 736, 2-(2,5-dimethylphenoxymethyl)phenyl 1,3,4-oxadiazol-2-yl ketone O-methyloxime]		100%	100%	100 percent control	134 to 135 °C				
CON=C(c1ncon1)c1ccccc1COc1ccc(Cl)cc1 [Compound No. 807, 2-(4-chlorophenoxymethyl)phenyl 1,2,4-oxadiazol-3-yl ketone O-methyloxime]		100%			107 to 108 °C				
CON=C(c1nnn(C)n1)c1ccccc1COc1cc(C)ccc1C [Compound No. 2036, 2-(2,5-dimethylphenoxymethyl)phenyl 2-methyl-2H-tetrazol-5-yl ketone O-methyloxime]		100%	90%		131 to 132 °C				
CON=C(c1ccccc1COc1c(C)cccc1C)n1ccnc1 [compound 40]	90 percent control			70 percent control		100 percent control	70 percent control	97 percent control	
CON=C(c1ccccc1COc1ccccc1)n1cncc1C [compound 201]	90 percent control			90 percent control		100 percent control	70 percent control	90 percent control	
CON=C(c1ccccc1COc1cccc(Cl)c1)n1cncc1C [compound 206]	90 percent control			97 percent control		100 percent control	97 percent control	90 percent control	
CON=C(c1ccccc1COc1ccc(Cl)cc1)n1cncc1C [compound 207]	90 percent control			97 percent control		100 percent control	100 percent control	100 percent control	
CCON=C(c1ccccc1COc1ccccc1)n1cncc1C [compound 215]	70 percent control			90 percent control		100 percent control	97 percent control	90 percent control	
CON=C(c1cc(C)no1)c1ccccc1CON=C(C)c1ccc(Cl)c(Cl)c1 [compound 2528, 2-(3,4-dichloro-α-methylbenzylideneaminooxymethyl)phenyl 3-methylisoxazol-5-yl ketone O-methyloxime]		100%			84 to 85 °C				100 percent control
